In US20250188075A1, “SUBSTITUTED HETEROCYCLIC CSNK1 INHIBITORS” (The Broad Institute, Inc., priority 2022, published 2025):
Where two headings read alike, the source gives them in different places.

Tests used:
[1] = Solubility assay (thermodynamic solubility); format: physicochemical; details: aqueous buffer; for solubility thermodynamic at 24 h: thermodynamic from solid, mean
Protocol: Solubility of solid compound in aqueous buffer was determined by an equilibrium shake flask method. A saturated solution of drug in solvent (˜2 mg/ml solvent) was prepared and the solution was mixed for 24 h to ensure that equilibrium has been reached. The solution was centrifuged to remove the insoluble fraction and the concentration of the compound in solution was determined by HPLC-UV using a standard calibration curve (Kerns, E. H. et al., Solubility Methods in: Drug-like Properties: Concepts, Structure Design and Methods, p 276-286. Burlington, MA: Academic Press 2008).

HT-29 cells = assay: HT29 cell proliferation assay, CTG method; format: cell-based; details: HT-29, CTG, 96 h, median, read-out: 2D-PROLI HT-29 CTG 96 h, IC50 - [mol/l] (median)
Protocol: CELL PROLIFERATION ASSAY CTG METHOD, 384-well version: Day 1: plated 400 cells/30 μL/well in growth medium (DMEM/Ham's F12; (Biochrom; #FG 4815, mit stabilem Glutamin)+FCS (final: 10%); (Biochrom; #S 0415)) in 384-well black plates (Corning #3571). Plated sister wells in a separate plate for time zero determination. Incubated all plates overnight at 37° C. Day 2: added test compounds in serial dilutions using the HP D300 Digital Dispenser and incubated at 37° C. for 96 h. Measured time zero plate: add 30 μL/well CTG solution (Promega CellTiter-Glo solution (catalog #G7573)) to wells in time zero plate; incubated for 2 minutes in a orbital shaker to induce cell lysis; allowed the plate to incubate at room temperature for additional 10 min to stabilize luminescent signal and read luminescence on PheraStar (rapid mode—0.02 sec/well; GAIN 3000). Day 6: Added 30 μL/well CTG solution to all test wells, incubated for 2 minutes in a orbital shaker to induce cell lysis; allowed the plate to incubate at room temperature for additional 10 min to stabilize luminescent signal and read luminescence on PheraStar (rapid mode—0.02 sec/well; GAIN 3000 Proliferation IC50s were calculated using the DRC application in ShiNy Analysis Platform-SNAP.”

HCT 116 cells = assay: HCT 116 cell proliferation assay, CTG; format: cell-based; details: HCT 116, CTG, 96 h, median, read-out: 2D-PROLI HCT 116 CTG 96 h, IC50 - [mol/l] (median)
Protocol: 400 HCT 116 cells/30 μL/well were plated in growth medium (DMEM/Ham's F12, 10% FCS) in a 384-well plate (CORNING #3571) at day 1. Reference plate was seeded for time zero determination. All plates were incubated overnight 37° C. Day 2: test compound was added in 7-step dilution and incubate at 37° C. for 96 h. Day 2: time zero plate: 30 μL/well CTG solution (Promega Cell Titer Glo solution; catalog #G755B and G756B) were added, incubated for 30 minutes, read luminescence on PheraStar. Day 6: compound treated plates: 30 μL/well CTG solution (Promega Cell Titer Glo solution; catalog #G755B and G756B) were added, incubated for 30 minutes, luminescence was read on PheraStar. Proliferation was calculated after subtracting time zero luminescence values from day 6 values and comparing to untreated wells. The IC50 values were determined using the four parameter fit.

human CSNK1G3 = human CSNK1G3 (Homo sapiens (Human), UniProt Q9Y6M4); assay: CSNK1G3 assay (ADP-Glo); format: biochemical; details: median, read-out: CSNK1G IC50 [mol/l] (median)
Protocol: CSNK1G3-inhibitory activity of compounds of the present invention in presence of 1 μM adenosine-tri-phosphate (ATP) was quantified employing the CSNK1G3 assay as described in the following paragraphs. In essence, the enzyme activity is measured by quantification of the adenosine-di-phosphate (ADP), which is generated as a co-product of the enzyme reaction, via the “ADP-Glo™ Kinase Assay” kit from the company Promega. This detection system works as follows: In a first step the ATP not consumed in the kinase reaction is quantitatively converted to CAMP employing an adenylate cyclase (“ADP-Glo-reagent”), then the adenylate cyclase is stopped and the ADP generated in the kinase reaction converted to ATP which generates in a luciferase-based reaction a glow-luminescence signal (“Kinase Detection Reagent”).
Recombinant fusion protein of N-terminal Glutathion-S-Transferase (GST) and full-length human CSNK1G3, expressed by baculovirus infected insect cells and purified via Glutathion affinity chromatography, was purchased from Life Technologies (product no. PV3838) and used as enzyme. As substrate for the kinase reaction the biotinylated peptide biotin-Ahx-KRRRAL-pS-VASLPGL (C-terminus in amide form) was used which can be purchased e.g. from the company Biosyntan (Berlin-Buch, Germany).
For the assay 50 nl of a 100 fold concentrated solution of the test compound in DMSO was pipetted into a white 1536-well microtiter plate (Greiner Bio-One, Frickenhausen, Germany), 2 μL of a solution of CSNK1G3 in aqueous assay buffer [50 mM HEPES pH 7.5, 10% (v/v) glycerol, 10 mM MgCl2, 50 mM NaCl, 1 mM dithiothreitol, 0.01% (w/v) bovine serum albumin, 0.01% (v/v) Triton X-100] were added and the mixture was incubated for 15 min at 22° C. to allow pre-binding of the test compounds to the enzyme before the start of the kinase reaction. Then the kinase reaction was started by the addition of 3 μL of a solution of ATP ([…]=>final conc. in the 5 μL assay volume is 1 M) and peptide substrate (50 μM=>final conc. in the 5 μL assay volume is 30 μM) in assay buffer and the resulting mixture was incubated for a reaction time of 30 min at 22° C. The concentration of CSNK1G3 was adjusted depending of the activity of the enzyme lot and was chosen appropriate to have the assay in the linear range, a typical concentration is about 0.06 ng/μL. The reaction was stopped by the addition of 2.5 μL of “ADP-Glo-reagent” (1:1.5 fold diluted with water) and the resulting mixture was incubated at 22° C. for 1 h to convert the ATP not consumed in the kinase reaction completely to CAMP. Subsequently 2.5 μL of the “kinase detection reagent” (1.2 fold more concentrated than recommended by the producer) were added, the resulting mixture was incubated at 22° C. for 1 h and then the luminescence measured with a suitable measurement instrument (e.g. Viewlux™ from Perkin-Elmer). The amount of emitted light was taken as a measure for the amount of ADP generated and thereby for the activity of the CSNK1G3.
The data were normalised (enzyme reaction without inhibitor=0% inhibition, all other assay components but no enzyme=100% inhibition).

[2] = read-out: Thermodynamic Solubility [mg/l] (mean)
[3] = read-out: Thermodynamic Solubility [μmol/L] (mean)

human CSNK1G3, sequence (Q9Y6M4 whole entry): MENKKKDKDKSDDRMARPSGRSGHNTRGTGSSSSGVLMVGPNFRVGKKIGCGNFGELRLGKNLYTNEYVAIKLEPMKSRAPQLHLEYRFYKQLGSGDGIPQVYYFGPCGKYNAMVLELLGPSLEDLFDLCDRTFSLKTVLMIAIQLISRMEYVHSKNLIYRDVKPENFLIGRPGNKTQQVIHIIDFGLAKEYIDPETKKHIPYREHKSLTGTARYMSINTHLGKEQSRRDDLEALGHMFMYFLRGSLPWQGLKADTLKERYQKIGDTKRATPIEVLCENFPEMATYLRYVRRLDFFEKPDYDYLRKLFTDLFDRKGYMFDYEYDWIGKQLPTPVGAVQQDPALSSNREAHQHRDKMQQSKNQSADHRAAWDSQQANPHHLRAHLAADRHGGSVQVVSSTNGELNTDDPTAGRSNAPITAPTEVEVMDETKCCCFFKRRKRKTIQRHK

SMILES: Cn1nc(CC(=O)Nc2cc(-c3[nH]c4cccnc4c3-c3ccccn3)ccn2)cc1C1CC1 [Example 29, 2-(5-cyclopropyl-1-methyl-pyrazol-3-yl)-N-[4-[3-(2-pyridyl)-^1H-pyrrolo[3,2-b]pyridin-2-yl]-2-pyridyl]acetamide]
- solubility thermodynamic at 24 h [1, 2]: < 0.1 mg/L
- solubility thermodynamic at 24 h [1, 3]: < 0.22 µmol/L
- IC50 (HT-29 cells; Homo sapiens): 340 nM
- IC50 (HCT 116 cells; Homo sapiens): 518 nM
- IC50 (human CSNK1G3): 27.4 nM

SMILES: Cc1cc(CC(=O)Nc2cc(-c3[nH]c4cccnc4c3-c3ccccn3)ccn2)nn1C [Example 16, 2-(1,5-dimethylpyrazol-3-yl)-N-[4-[3-(2-pyridyl)-^1H-pyrrolo[3,2-b]pyridin-2-yl]-2-pyridyl]acetamide]
- solubility thermodynamic at 24 h [1, 2]: 2.5 mg/L
- solubility thermodynamic at 24 h [1, 3]: 5.9 µmol/L
- IC50 (HT-29 cells; Homo sapiens): 627 nM
- IC50 (HCT 116 cells; Homo sapiens): 706 nM
- IC50 (human CSNK1G3): 31.7 nM

SMILES: O=C(Cc1ccns1)Nc1cc(-c2[nH]c3cccnc3c2-c2ccccn2)ccn1 [Example 22, 2-isothiazol-5-yl-N-[4-[3-(2-pyridyl)-^1H-pyrrolo[3,2-b]pyridin-2-yl]-2-pyridyl]acetamide]
- solubility thermodynamic at 24 h [1, 2]: 12.6 mg/L
- solubility thermodynamic at 24 h [1, 3]: 30.6 µmol/L
- IC50 (HT-29 cells; Homo sapiens): 337 nM
- IC50 (HCT 116 cells; Homo sapiens): 357 nM
- IC50 (human CSNK1G3): 27 nM

SMILES: O=C(Cc1ccn(CC(F)(F)F)n1)Nc1cc(-c2[nH]c3cccnc3c2-c2ccccn2)ccn1 [Example 20, N-[4-[3-(2-pyridyl)-^1H-pyrrolo[3,2-b]pyridin-2-yl]-2-pyridyl]-2-[1-(2,2,2-trifluoroethyl)pyrazol-3-yl]acetamide]
- solubility thermodynamic at 24 h [1, 2]: 23.9 mg/L
- solubility thermodynamic at 24 h [1, 3]: 50.1 µmol/L
- IC50 (HT-29 cells; Homo sapiens): 341 nM
- IC50 (HCT 116 cells; Homo sapiens): 344 nM
- IC50 (human CSNK1G3): 14.8 nM

SMILES: Cc1ocnc1CC(=O)Nc1cc(-c2[nH]c3cccnc3c2-c2ccccn2)ccn1 [Example 11, 2-(5-methyloxazol-4-yl)-N-[4-[3-(2-pyridyl)-^1H-pyrrolo[3,2-b]pyridin-2-yl]-2-pyridyl]acetamide]
- solubility thermodynamic at 24 h [1, 2]: 8.4 mg/L
- solubility thermodynamic at 24 h [1, 3]: 20.5 µmol/L
- IC50 (HT-29 cells; Homo sapiens): 1410 nM
- IC50 (HCT 116 cells; Homo sapiens): 964 nM
- IC50 (human CSNK1G3): 120 nM

SMILES: Cc1nn(C)cc1CC(=O)Nc1cc(-c2[nH]c3cccnc3c2-c2ccccn2)ccn1 [Example 9, 2-(1,3-dimethylpyrazol-4-yl)-N-[4-[3-(2-pyridyl)-^1H-pyrrolo[3,2-b]pyridin-2-yl]-2-pyridyl]acetamide]
- solubility thermodynamic at 24 h [1, 2]: 1.3 mg/L
- solubility thermodynamic at 24 h [1, 3]: 3.07 µmol/L
- IC50 (HT-29 cells; Homo sapiens): 860 nM
- IC50 (HCT 116 cells; Homo sapiens): 817 nM
- IC50 (human CSNK1G3): 51.2 nM

SMILES: O=C(Cc1cc2ccccn2n1)Nc1cc(-c2[nH]c3cccnc3c2-c2ccccn2)ccn1 [Example 15, 2-pyrazolo[1,5-a]pyridin-2-yl-N-[4-[3-(2-pyridyl)-^1H-pyrrolo[3,2-b]pyridin-2-yl]-2-pyridyl]acetamide]
- solubility thermodynamic at 24 h [1, 2]: 0.8 mg/L
- solubility thermodynamic at 24 h [1, 3]: 1.8 µmol/L
- IC50 (HT-29 cells; Homo sapiens): 149 nM
- IC50 (HCT 116 cells; Homo sapiens): 171 nM
- IC50 (human CSNK1G3): 10.3 nM

SMILES: O=C(Cc1cnc2ccccn12)Nc1cc(-c2[nH]c3cccnc3c2-c2ccccn2)ccn1 [Example 1, 2-imidazo[1,2-a]pyridin-3-yl-N-[4-[3-(2-pyridyl)-^1H-pyrrolo[3,2-b]pyridin-2-yl]-2-pyridyl]acetamide]
- solubility thermodynamic at 24 h [1, 2]: 9.6 mg/L
- solubility thermodynamic at 24 h [1, 3]: 21.6 µmol/L
- IC50 (HT-29 cells; Homo sapiens): 2670 nM
- IC50 (HCT 116 cells; Homo sapiens): 3870 nM
- IC50 (human CSNK1G3): 71.7 nM

SMILES: Cc1nc(C)c(CC(=O)Nc2cc(-c3[nH]c4cccnc4c3-c3ccccn3)ccn2)s1 [Example 18, 2-(2,4-dimethylthiazol-5-yl)-N-[4-[3-(2-pyridyl)-^1H-pyrrolo[3,2-b]pyridin-2-yl]-2-pyridyl]acetamide]
- solubility thermodynamic at 24 h [1, 2]: 5.4 mg/L
- solubility thermodynamic at 24 h [1, 3]: 12.3 µmol/L
- IC50 (HT-29 cells; Homo sapiens): 220 nM
- IC50 (HCT 116 cells; Homo sapiens): 179 nM
- IC50 (human CSNK1G3): 15.4 nM

SMILES: Cc1nn(C)c(C)c1CC(=O)Nc1cc(-c2[nH]c3cccnc3c2-c2ccccn2)ccn1 [Example 17, N-[4-[3-(2-pyridyl)-^1H-pyrrolo[3,2-b]pyridin-2-yl]-2-pyridyl]-2-(1,3,5-trimethylpyrazol-4-yl)acetamide]
- solubility thermodynamic at 24 h [1, 2]: 14.9 mg/L
- solubility thermodynamic at 24 h [1, 3]: 34.1 µmol/L
- IC50 (HT-29 cells; Homo sapiens): 1180 nM
- IC50 (HCT 116 cells; Homo sapiens): 1030 nM
- IC50 (human CSNK1G3): 68.2 nM

SMILES: Cn1cc(CC(=O)Nc2cc(-c3[nH]c4cccnc4c3-c3ccccn3)ccn2)cn1 [Example 2, 2-(1-methylpyrazol-4-yl)-N-[4-[3-(2-pyridyl)-^1H-pyrrolo[3,2-b]pyridin-2-yl]-2-pyridyl]acetamide]
- solubility thermodynamic at 24 h [1, 2]: 85.2 mg/L
- solubility thermodynamic at 24 h [1, 3]: 208 µmol/L
- IC50 (HT-29 cells; Homo sapiens): 2670 nM
- IC50 (HCT 116 cells; Homo sapiens): 3600 nM
- IC50 (human CSNK1G3): 102 nM

SMILES: Cn1cnc(CC(=O)Nc2cc(-c3[nH]c4cccnc4c3-c3ccccn3)ccn2)c1 [Example 5, 2-(1-methylimidazol-4-yl)-N-[4-[3-(2-pyridyl)-^1H-pyrrolo[3,2-b]pyridin-2-yl]-2-pyridyl]acetamide]
- solubility thermodynamic at 24 h [1, 2]: > 409 mg/L
- solubility thermodynamic at 24 h [1, 3]: > 1000 µmol/L
- IC50 (HT-29 cells; Homo sapiens): 3420 nM
- IC50 (HCT 116 cells; Homo sapiens): 2790 nM
- IC50 (human CSNK1G3): 74.5 nM

SMILES: O=C(Nc1cc(-c2[nH]c3c(OCC(F)F)ncnc3c2-c2ccccn2)ccn1)[C@@H](CC(F)F)c1ccc(F)cc1 [Example C3, reference compound]
- Thermodynamic Solubility [mg/l] (mean) ([1]; 24 h): <0.10 mg/L
- Thermodynamic Solubility [μmol/L] (mean) ([1]; 24 h): <0.18 µmol/L
- IC50 (HT-29 cells): 110 nM
- IC50 (HCT 116 cells): 735 nM
- IC50 (human CSNK1G3): 6.22 nM

SMILES: CC(C)n1ccc(CC(=O)Nc2cc(-c3[nH]c4cccnc4c3-c3ccccn3)ccn2)n1 [Example 28, 2-(1-isopropylpyrazol-3-yl)-N-[4-[3-(2-pyridyl)-^1H-pyrrolo[3,2-b]pyridin-2-yl]-2-pyridyl]acetamide]
- solubility thermodynamic at 24 h [1, 2]: < 0.1 mg/L
- solubility thermodynamic at 24 h [1, 3]: < 0.23 µmol/L
- IC50 (HT-29 cells; Homo sapiens): 314 nM
- IC50 (HCT 116 cells; Homo sapiens): 586 nM
- IC50 (human CSNK1G3): 20.4 nM
